Patent publication US9399626B2, “2-thiopyrimidinones” (Pfizer Inc., priority 2011, dated 2016)
Where a name gives a salt, the structure may show the parent alone.

molecular target: T1, MPO (purified from human polynuclear leukocytes) (Homo sapiens, UniProt P05164); experiment: MPO Amplex Red Activity Assay; assay type: biochemical; settings: Table 1, 2 μM H2O2, pH 7.4
T1 construct: purified from human polynuclear leukocytes; purchased Calbiochem/EMD Biosciences; host or cells: human polynuclear leukocytes (natural source)
T1 sequence (P05164 279-745 limits assumed): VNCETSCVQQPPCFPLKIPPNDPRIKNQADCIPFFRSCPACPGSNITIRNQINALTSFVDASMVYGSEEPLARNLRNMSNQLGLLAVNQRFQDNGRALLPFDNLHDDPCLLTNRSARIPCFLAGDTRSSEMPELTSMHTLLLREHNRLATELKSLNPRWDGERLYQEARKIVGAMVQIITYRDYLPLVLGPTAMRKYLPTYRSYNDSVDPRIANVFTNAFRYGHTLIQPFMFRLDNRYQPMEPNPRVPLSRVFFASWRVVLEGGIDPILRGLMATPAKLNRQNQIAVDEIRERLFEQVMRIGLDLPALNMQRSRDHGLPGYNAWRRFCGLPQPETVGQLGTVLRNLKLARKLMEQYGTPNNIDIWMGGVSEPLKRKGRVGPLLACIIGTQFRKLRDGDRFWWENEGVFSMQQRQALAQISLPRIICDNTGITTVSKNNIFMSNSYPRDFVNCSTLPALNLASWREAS
T1 sequence (P05164 165-273 limits assumed): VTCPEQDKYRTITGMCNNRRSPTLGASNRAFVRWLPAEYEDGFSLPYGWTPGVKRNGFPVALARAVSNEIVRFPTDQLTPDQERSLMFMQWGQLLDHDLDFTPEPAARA
How it was run: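 Potency is given as kinact/KI: kobs values from 600 s progress curves, minus the uninhibited rate, are fit against inhibitor concentration. Reactions use 2 μM H2O2, 30 μM Amplex Red, pH 7.4 phosphate buffer with NaCl, DTPA and 2% DMSO, started with […] human MPO. Readout is resorufin fluorescence, catalase background subtracted.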

Row | Structure (SMILES) | MPO kinact/Ki
1 | NCCn1c(-c2ccccc2-n2nccn2)cc(=O)[nH]c1=S [Example 144, 1-(2-aminoethyl)-2-thioxo-6-[2-(2H-1,2,3-triazol-2-yl)phenyl]-2,3-dihydropyrimidin-4(1H)-one hydrochloride] | 6010 1/s per M
2 | COCCn1c(-c2cc3ccccc3s2)cc(=O)[nH]c1=S [Example 323, 6-(1-benzothien-2-yl)-1-(2-methoxyethyl)-2-thioxo-2,3-dihydropyrimidin-4(1H)-one] | 10200 1/s per M
3 | COc1cc(OC)cc(-c2cc(=O)[nH]c(=S)n2CCO)c1 [Example 54, 6-(3,5-dimethoxyphenyl)-1-(2-hydroxyethyl)-2-thioxo-2,3-dihydropyrimidin-4(1H)-one] | 7070 1/s per M
4 | O=c1cc(-c2cccc3c2OCCO3)n(CCO)c(=S)[nH]1 [Example 47, 6-(2,3-dihydro-1,4-benzodioxin-5-yl)-1-(2-hydroxyethyl)-2-thioxo-2,3-dihydropyrimidin-4(1H)-one] | 2340 1/s per M
5 | COc1ccc(-c2cc(=O)[nH]c(=S)n2CCO)c2ccccc12 [Example 274, 1-(2-hydroxyethyl)-6-(4-methoxy-1-naphthyl)-2-thioxo-2,3-dihydropyrimidin-4(1H)-one] | 22800 1/s per M
6 | NCCn1c(-c2ccccc2OCC(N)=O)cc(=O)[nH]c1=S [Example 272, 2-{2-[3-(2-aminoethyl)-6-oxo-2-thioxo-1,2,3,6-tetrahydropyrimidin-4-yl]phenoxy}acetamide trifluoroacetate] | 3160 1/s per M
7 | COc1cc2ccccc2cc1-c1cc(=O)[nH]c(=S)n1CCN [Example 95, 1-(2-aminoethyl)-6-(3-methoxy-2-naphthyl)-2-thioxo-2,3-dihydropyrimidin-4(1H)-one hydrochloride] | 15400 1/s per M
8 | NCCn1c(-c2cccc3ccoc23)cc(=O)[nH]c1=S [Example 143, 1-(2-aminoethyl)-6-(1-benzofuran-7-yl)-2-thioxo-2,3-dihydropyrimidin-4(1H)-one hydrochloride] | 8110 1/s per M
9 | COc1cc(-c2cc(=O)[nH]c(=S)n2CCCN)c(OC)cc1C [Example 106, 1-(3-aminopropyl)-6-(2,5-dimethoxy-4-methylphenyl)-2-thioxo-2,3-dihydropyrimidin-4(1H)-one hydrochloride] | 10500 1/s per M
10 | NCCn1c(-c2cccc(Br)c2)cc(=O)[nH]c1=S [Example 183, 1-(2-aminoethyl)-6-(3-bromophenyl)-2-thioxo-2,3-dihydropyrimidin-4(1H)-one hydrochloride] | 4830 1/s per M
11 | NCCCn1c(-c2cccc3ccoc23)cc(=O)[nH]c1=S [Example 34, 1-(3-aminopropyl)-6-(1-benzofuran-7-yl)-2-thioxo-2,3-dihydropyrimidin-4(1H)-one hydrochloride] | 13100 1/s per M
12 | COc1ccc(-c2cc(=O)[nH]c(=S)n2CCC2CCNCC2)c(OC)c1 [Example 152, 6-(2,4-dimethoxyphenyl)-1-(2-piperidin-4-ylethyl)-2-thioxo-2,3-dihydropyrimidin-4(1H)-one hydrochloride] | 4770 1/s per M
13 | COc1cc2ccccc2cc1-c1cc(=O)[nH]c(=S)n1CC(N)=O [Example 112, 2-[6-(3-methoxy-2-naphthyl)-4-oxo-2-thioxo-3,4-dihydropyrimidin-1(2H)-yl]acetamide] | 14900 1/s per M
14 | COc1ccc(C)cc1-c1cc(=O)[nH]c(=S)n1CCNC(=O)CN [Example 120, N-{2-[6-(2-methoxy-5-methylphenyl)-4-oxo-2-thioxo-3,4-dihydropyrimidin-1(2H)-yl]ethyl} glycinamide hydrochloride] | 9720 1/s per M
15 | COCCn1c(-c2ccncc2OC)cc(=O)[nH]c1=S [Example 296, 1-(2-methoxyethyl)-6-(3-methoxypyridin-4-yl)-2-thioxo-2,3-dihydropyrimidin-4(1H)-one] | 1570 1/s per M
16 | COc1ccc(-c2cc(=O)[nH]c(=S)n2CC(=O)NCCN)c(OC)c1 [Example 241, N-(2-aminoethyl)-2-(6-(2,4-dimethoxyphenyl)-4-oxo-2-thioxo-3,4-dihydropyrimidin-1(2H)-yl)acetamide hydrochloride] | 7060 1/s per M
17 | COc1ccc(-c2cc(=O)[nH]c(=S)n2CC2(O)CCNCC2)c(OC)c1 [Example 252, 6-(2,4-dimethoxyphenyl)-1-[(4-hydroxypiperidin-4-yl)methyl]-2-thioxo-2,3-dihydropyrimidin-4(1H)-one hydrochloride] | 2480 1/s per M

Next, values leading:

Row | MPO kinact/Ki | Structure (SMILES)
18 | 2200 1/s per M | COc1ccc(-c2cc(=O)[nH]c(=S)n2CCC2CCN(C(C)=O)CC2)c(OC)c1 [Example 153, 1-[2-(1-acetylpiperidin-4-yl)ethyl]-6-(2,4-dimethoxyphenyl)-2-thioxo-2,3-dihydropyrimidin-4(1H)-one]
19 | 7070 1/s per M | CCOC(=O)CCn1c(-c2ccc(OC)cc2OC)cc(=O)[nH]c1=S [Example 240, ethyl 3-[6-(2,4-dimethoxyphenyl)-4-oxo-2-thioxo-3,4-dihydropyrimidin-1(2H)-yl]propanoate]
20 | 17800 1/s per M | COc1ccc(OC)c(-c2cc(=O)[nH]c(=S)n2CCO)c1 [Example 169, 6-(2,5-dimethoxyphenyl)-1-(2-hydroxyethyl)-2-thioxo-2,3-dihydropyrimidin-4(1H)-one]
21 | 1920 1/s per M | COc1ccc(-c2cc(=O)[nH]c(=S)n2CCNC(C)=O)c(OC)c1 [Example 215, N-{2-[6-(2,4-dimethoxyphenyl)-4-oxo-2-thioxo-3,4-dihydropyrimidin-1(2H)-yl]ethyl}acetamide]
22 | 19700 1/s per M | COc1ccc(-c2cc(=O)[nH]c(=S)n2CCCC[C@H](N)C(N)=O)c(OC)c1 [Example 260, 6-[6-(2,4-dimethoxyphenyl)-4-oxo-2-thioxo-3,4-dihydropyrimidin-1(2H)-yl]norleucinamide hydrochloride]
23 | 7160 1/s per M | COc1ccc(-c2cc(=O)[nH]c(=S)n2CCCO)c(OC)c1 [Example 181, 6-(2,4-dimethoxyphenyl)-1-(3-hydroxypropyl)-2-thioxo-2,3-dihydropyrimidin-4(1H)-one]
24 | 5640 1/s per M | COc1ccc(-c2cc(=O)[nH]c(=S)n2CCCCO)c(OC)c1 [Example 196, 6-(2,4-dimethoxyphenyl)-1-(4-hydroxybutyl)-2-thioxo-2,3-dihydropyrimidin-4(1H)-one]
25 | 10400 1/s per M | COc1ccc(-c2cc(=O)[nH]c(=S)n2CCOCCNC(=N)N)c(OC)c1 [Example 140, 1-(2-{2-[6-(2,4-dimethoxyphenyl)-4-oxo-2-thioxo-3,4-dihydropyrimidin-1(2H)-yl]ethoxy}ethyl) guanidine formate]
26 | 14100 1/s per M | COc1ccc(-c2cc(=O)[nH]c(=S)n2CCCCN)c(OC)c1 [Example 191, 1-(4-aminobutyl)-6-(2,4-dimethoxyphenyl)-2-thioxo-2,3-dihydropyrimidin-4(1H)-one hydrochloride]
27 | 5740 1/s per M | COc1ccc(-c2cc(=O)[nH]c(=S)n2CC(=O)NC(=N)N)c(OC)c1 [Example 236, N-[amino(imino)methyl]-2-[6-(2,4-dimethoxyphenyl)-4-oxo-2-thioxo-3,4-dihydropyrimidin-1(2H)-yl]acetamide trifluoroacetate]
28 | 3590 1/s per M | COc1ccc(-c2cc(=O)[nH]c(=S)n2CCS(N)(=O)=O)c(OC)c1 [Example 248, 2-[6-(2,4-dimethoxyphenyl)-4-oxo-2-thioxo-3,4-dihydropyrimidin-1(2H)-yl]ethanesulfonamide]

same assay, conditions: Table 1A, 2 μM H2O2, pH 7.4

Row | Structure (SMILES) | MPO kinact/Ki
29 | NC(=O)Cn1c(-c2cccc3c2OCCO3)cc(=O)[nH]c1=S [Example 363, 2-[6-(2,3-dihydro-1,4-benzodioxin-5-yl)-4-oxo-2-thioxo-3,4-dihydropyrimidin-1(2H)-yl]acetamide] | 9680 1/s per M
30 | O=c1cc(-c2cc(Cl)ccc2OCCO)n(CCO)c(=S)[nH]1 [Example 425, 6-[5-chloro-2-(2-hydroxyethoxy)phenyl]-1-(2-hydroxyethyl)-2-thioxo-2,3-dihydropyrimidin-4(1H)-one] | 13400 1/s per M
31 | NC(=O)Cn1c(-c2cc(Cl)ccc2OCCO)cc(=O)[nH]c1=S [Example 426, 2-{6-[5-chloro-2-(2-hydroxyethoxy)phenyl]-4-oxo-2-thioxo-3,4-dihydropyrimidin-1(2H)-yl}acetamide] | 4410 1/s per M

Second part, the compound after the results:

Row | MPO kinact/Ki | Structure (SMILES)
32 | 3480 1/s per M | CNCCNC(=O)Cn1c(-c2ccc(OC)cc2OC)cc(=O)[nH]c1=S [Example 391, 2-[6-(2,4-dimethoxyphenyl)-4-oxo-2-thioxo-3,4-dihydropyrimidin-1(2H)-yl]-N-[2-(methylamino)ethyl]acetamide]
33 | 11500 1/s per M | COc1cc(C)ccc1-c1cc(=O)[nH]c(=S)n1CC(N)=O [Example 418, 2-[6-(2-methoxy-4-methylphenyl)-4-oxo-2-thioxo-3,4-dihydropyrimidin-1(2H)-yl]acetamide]
34 | 3310 1/s per M | COc1ccc(-c2cc(=O)[nH]c(=S)n2CCN(C)C(=O)CN)c(OC)c1 [Example 440, N-{2-[6-(2,4-dimethoxyphenyl)-4-oxo-2-thioxo-3,4-dihydropyrimidin-1(2H)-yl]ethyl}-N-methylglycinamide]
35 | 4060 1/s per M | COc1ccc(-c2cc(=O)[nH]c(=S)n2CC(=O)N[C@H](C)CN)c(OC)c1 [Example 401, N-[(2R)-1-aminopropan-2-yl]-2-[6-(2,4-dimethoxyphenyl)-4-oxo-2-thioxo-3,4-dihydropyrimidin-1(2H)-yl]acetamide]
36 | 27800 1/s per M | COc1ccc(-c2cc(=O)[nH]c(=S)n2CC(F)(F)CN=C(N)N)c(OC)c1 [Example 453, 2-{3-[6-(2,4-dimethoxyphenyl)-4-oxo-2-thioxo-3,4-dihydropyrimidin-1(2H)-yl]-2,2-difluoropropyl}guanidine]
